# Laboratory results reported in patent EP2667887B1, “PHARMACEUTICAL COMPOSITION COMPRISING THE PEPTIDE GLU-ASP-GLY AND USE FOR TREATING HELICOBACTER PYLORI INDUCED GASTRODUODENAL DISEASES” («Garmonia», Ltd., priority 2011, dated 2012).
# Columns and labels:
# [1] = test system: mice embryonic fibroblasts (MEF+/+, knockout mice line LMNA); experiment: Effect on Helicobacter pylori-induced mitochondrial damage in mouse embryonic fibroblasts (mito-GFP confocal microscopy); type: cell-based; conditions: peptide 10 µM added 30 minutes before Helicobacter pylori (strain Cag J117), 7 hours incubation; compared to control
# Protocol: A study of the effect of a pharmaceutical composition comprising the peptide H-Glu-Asp-Gly-OH as an active substance on molecular and cellular mechanisms of apoptosis was carried out on a wild type of mice embryonic fibroblasts (MEF+/+, knockout mice line LMNA). Cells were cultivated at 37°C in a damp incubation medium containing 5% CO2 in DMEM (Dulbecco's Modified Eagle's Medium, ICN Biomedicals) and 10% calf embryonic serum. Preliminary sorting of cells for passaging in a 1:3-1:5 ratio was performed using a mixture of 0.125% trypsin, 0.02M EDTA (ethylenediaminetetraacetic acid), 0.02% glucose dissolved in a phosphate buffer. Cells were passaged in a culturing medium for 5 days and then taken for the study.
# On the 5th day after the beginning of passaging of the cells peptide H-Glu-Asp-Gly-OH was added in the culturing medium in the dose of 10 µM, and in 30 minutes the cells were taken for study. […]
# The status of isolated mitochondria was evaluated using immunofluorescent confocal laser microscopy. […]
# Confocal microscopy of mitochondria with optical density evaluation was carried out in an inverted confocal microscope Olympus Fluoview CM FV300-IX70 using an apochromatic lens 606 UPlan (Olympus). A 488 nm excitation wave of argon laser was used in each chamber to specify mito-GFP fluorescence that verifies the structure of mitochondria.
# modeled ulcer = experiment: Morphology study of the induced gastric ulcer (cysteamine-HCL + Helicobacter pylori); type: in vivo, Sprague Dawley rats
# Protocol: The study was carried out on 90 male Sprague Dawley rats (180-220 g) randomly subdivided into 9 groups (10 animals per group): • Group 1 - intact rats (saline solution) • Group 2 - modeled ulcer + saline solution • Group 3 (6 subgroups) - modeled ulcer + H-Glu-Asp-Gly-OH • Group 4 - modeled ulcer + Klacid antibiotic
# Ulcer was modeled by three-time administration (in 4 hours) in the rat stomach of cysteamine-HCL (Aldrich, Milwannee, WI) by means of a probe in the dose of 25 mg per 100 g of body weight. The ulcer, approximately 28 mm^2 in size, appeared at the boundary between antral and fundal segments of the stomach 12 hours after the last administration. Simultaneously with the first administration of cysteamine-HCL a Helicobacter pylori culture (Curtin Matheson Scientific Inc, strain Cag J117, 100 microbial cells) was administered in the rat stomach through the same probe.
# (§1) A means on the basis of the pharmaceutical composition comprising the studied peptide H-Glu-Asp-Gly-OH was administered subcutaneously in the dose of 1 µg per kg of animal body weight (group 3a), 2,5 µg per kg of body weight (group 3b) and 10 µg per kg of body weight (group 3c) in 0,5 ml of saline solution daily, for 5 days from the occurrence of the stomach ulcer.
# as §1, with “The means” for “A means”, “administered intragastrically (through a probe)” for “administered subcutaneously”, “(group 3d),” for “(group 3a),”, “(group 3e)” for “(group 3b)”, “(group 3f)” for “(group 3c)”
# Antibiotic Klacid (clarithromycin, Abbott) was administered intramuscularly in the dose of 10 mg in 1 ml of saline solution daily for 5 days from the occurrence of the stomach ulcer.
# Material for study was taken from ulcer edge on the 7th day (for western blot assay and polymerase chain reaction in real time - RT-PCR), as well as on the 7th, 15th and 21st day for morphology study and confocal microscopy.
# For a morphology study, pieces of gastric mucous membrane from the ulcer edge were fixed in 10% neutral formalin (pH 7.2), then the material was dried out in a Leica TP1020 automatic station (Leica) and covered with paraffin. 5 µm thick paraffin slices were placed on object plates covered with a poly-L-lysine film (Sigma). For a visual study the slices were stained with hematoxylin and eosin, as well as with picrofuxin by the van Gison method.
# [2] = Subacute toxicity study, 90 days; type: in vivo, white mongrel male rats; conditions: rats, daily for 90 days, 1 µg/kg, 0,1 mg/kg, doses exceed the therapeutic one by 100-1000 times
# Protocol: General toxicity of peptide H-Glu-Asp-Gly-OH was studied in accordance with the requirements of "Manual for Experimental (Pre-Clinical) Study of New Pharmacological Substances" (2000): acute toxicity in case of a single administration of the preparation, as well as subacute and chronic toxicity in case of a long-term administration of the peptide.
# Subacute toxicity study was carried out on 64 white mongrel male rats with body weight 180-220 g. Experimental animals received the preparation daily, once a day for 90 days in the doses of 1 µg/kg, 0,1 mg/kg, 1 mg/kg in 0,5 ml of sterile 0,9% NaCl solution. Control animals were treated with sterile 0,9% NaCl solution in the same volume. Before the administration of the preparation, as well as on the 30th, 60th and 90th day after the beginning of the administration of the preparation peripheral blood morphology and properties were studied in the animals. Upon completion of the experiment biochemical and coagulology indices of the blood were evaluated.
substance,measurement,setting,value
glutamyl-aspartyl-glycine [H-Glu-Asp-Gly-OH],luminescence of mitochondrial GFP in terms of optical density values,[1],exceeded the control indices
same,"ulcer pathomorphosis, 7th day","modeled ulcer; 7th day after ulcer induction, treatment daily for 5 days, peptide 1, 2,5, 10 µg/kg subcutaneously or intragastrically, Klacid 10 mg intramuscularly",a decrease both in the area of the ulcerous lesion and in its depth was observed
same,"ulcer pathomorphosis, 15th day","modeled ulcer; 15th day after ulcer induction, treatment daily for 5 days, peptide 1, 2,5, 10 µg/kg subcutaneously or intragastrically, Klacid 10 mg intramuscularly",a significant decrease in ulcerous lesion area and depth was observed
same,"ulcer pathomorphosis, 21st day","modeled ulcer; 21st day after ulcer induction, treatment daily for 5 days, peptide both methods of administration and three dosages, Klacid 10 mg intramuscularly",no ulcerous lesions were macroscopically observed
same,pathomorphosis of an induced gastric ulcer (Fig. 12 C),"modeled ulcer; 21st day, peptide dose 2,5 µg/kg",complete epithelization of the ulcer
same,delay of epithelialization of the ulcerous lesion compared to higher doses,"modeled ulcer; dose 1,0 µg/kg (Groups 3a and 3d) versus 2,5 µg/kg and 10 µg/kg",2 to 3 days
same,subacute toxicity,[2],no side effects
